The IC50 is the concentration needed to halve the response being measured.

For one experiment, the target named is PIK3CA (human) (UniProt P42336). Briefly: Assessment of PIK3CA Kinase Activity.
A further experiment addresses PIK3CD (Human) (UniProt O00329). The experiment is described as follows: Assessment of PIK3CD Kinase Activity.
For the next experiment, the target named is PIK3CB (Human) (UniProt P42338). The experiment is described as follows: Assessment of PIK3CB Kinase Activity.
The target in the next experiment is PIK3CG (human) (UniProt P48736). Briefly: Assessment of PIK3CG Kinase Activity.
Chain of PIK3CG (human) (P48736 whole entry, looked up): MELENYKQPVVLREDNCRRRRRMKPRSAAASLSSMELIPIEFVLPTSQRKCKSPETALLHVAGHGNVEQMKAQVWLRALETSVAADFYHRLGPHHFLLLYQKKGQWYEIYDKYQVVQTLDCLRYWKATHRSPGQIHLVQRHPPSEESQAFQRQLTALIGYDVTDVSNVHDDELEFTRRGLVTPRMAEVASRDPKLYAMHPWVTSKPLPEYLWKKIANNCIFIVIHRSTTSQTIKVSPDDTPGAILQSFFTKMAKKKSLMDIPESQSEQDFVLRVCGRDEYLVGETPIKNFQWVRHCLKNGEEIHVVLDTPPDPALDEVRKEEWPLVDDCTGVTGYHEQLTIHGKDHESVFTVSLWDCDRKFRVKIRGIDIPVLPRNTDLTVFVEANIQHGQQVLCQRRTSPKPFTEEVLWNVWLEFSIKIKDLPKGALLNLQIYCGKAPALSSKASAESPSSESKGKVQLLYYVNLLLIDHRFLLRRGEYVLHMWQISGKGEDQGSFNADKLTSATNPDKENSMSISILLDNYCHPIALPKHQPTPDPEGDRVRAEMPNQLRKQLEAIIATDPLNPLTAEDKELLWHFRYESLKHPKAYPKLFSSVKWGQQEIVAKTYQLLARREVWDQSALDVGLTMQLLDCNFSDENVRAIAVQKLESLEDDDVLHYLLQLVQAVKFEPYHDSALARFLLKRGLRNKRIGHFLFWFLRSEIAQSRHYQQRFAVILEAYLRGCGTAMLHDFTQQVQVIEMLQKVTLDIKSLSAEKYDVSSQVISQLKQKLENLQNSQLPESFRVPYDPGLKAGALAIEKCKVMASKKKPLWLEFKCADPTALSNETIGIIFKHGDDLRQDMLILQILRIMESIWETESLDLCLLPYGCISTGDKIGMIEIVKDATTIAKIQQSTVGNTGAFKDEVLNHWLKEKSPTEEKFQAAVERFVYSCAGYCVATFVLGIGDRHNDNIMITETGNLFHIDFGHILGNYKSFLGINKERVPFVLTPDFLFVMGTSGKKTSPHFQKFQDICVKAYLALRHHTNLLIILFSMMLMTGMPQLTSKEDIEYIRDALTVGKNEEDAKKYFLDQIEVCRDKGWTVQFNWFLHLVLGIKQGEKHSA

Chain of PIK3CD (Human) (O00329 whole entry, looked up): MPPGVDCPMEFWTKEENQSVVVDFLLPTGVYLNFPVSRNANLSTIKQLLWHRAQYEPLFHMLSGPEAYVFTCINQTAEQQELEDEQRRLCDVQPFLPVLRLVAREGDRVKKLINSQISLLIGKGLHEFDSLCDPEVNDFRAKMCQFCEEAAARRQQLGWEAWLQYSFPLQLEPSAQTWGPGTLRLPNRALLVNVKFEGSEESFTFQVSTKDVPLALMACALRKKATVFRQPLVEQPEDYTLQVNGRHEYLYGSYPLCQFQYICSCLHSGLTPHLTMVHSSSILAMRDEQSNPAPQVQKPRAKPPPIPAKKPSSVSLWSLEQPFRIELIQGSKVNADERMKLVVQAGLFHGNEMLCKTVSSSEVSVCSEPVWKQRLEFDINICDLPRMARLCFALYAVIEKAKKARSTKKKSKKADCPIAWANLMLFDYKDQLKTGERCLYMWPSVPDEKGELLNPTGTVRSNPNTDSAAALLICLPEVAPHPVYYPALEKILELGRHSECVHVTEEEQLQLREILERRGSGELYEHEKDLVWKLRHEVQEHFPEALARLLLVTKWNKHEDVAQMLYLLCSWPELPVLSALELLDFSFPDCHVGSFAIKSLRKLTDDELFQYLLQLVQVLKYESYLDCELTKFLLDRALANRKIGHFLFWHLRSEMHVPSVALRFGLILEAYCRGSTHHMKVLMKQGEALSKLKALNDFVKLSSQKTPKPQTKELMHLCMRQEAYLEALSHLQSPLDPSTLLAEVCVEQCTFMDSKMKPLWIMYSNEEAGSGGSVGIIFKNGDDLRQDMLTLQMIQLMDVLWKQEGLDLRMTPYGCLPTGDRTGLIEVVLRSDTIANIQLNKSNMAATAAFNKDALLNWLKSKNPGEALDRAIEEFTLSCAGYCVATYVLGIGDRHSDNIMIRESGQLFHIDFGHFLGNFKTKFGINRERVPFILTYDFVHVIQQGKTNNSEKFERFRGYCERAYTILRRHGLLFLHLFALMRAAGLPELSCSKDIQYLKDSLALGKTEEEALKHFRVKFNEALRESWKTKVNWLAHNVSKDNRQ
Chain of PIK3CB (Human) (P42338 whole entry, looked up): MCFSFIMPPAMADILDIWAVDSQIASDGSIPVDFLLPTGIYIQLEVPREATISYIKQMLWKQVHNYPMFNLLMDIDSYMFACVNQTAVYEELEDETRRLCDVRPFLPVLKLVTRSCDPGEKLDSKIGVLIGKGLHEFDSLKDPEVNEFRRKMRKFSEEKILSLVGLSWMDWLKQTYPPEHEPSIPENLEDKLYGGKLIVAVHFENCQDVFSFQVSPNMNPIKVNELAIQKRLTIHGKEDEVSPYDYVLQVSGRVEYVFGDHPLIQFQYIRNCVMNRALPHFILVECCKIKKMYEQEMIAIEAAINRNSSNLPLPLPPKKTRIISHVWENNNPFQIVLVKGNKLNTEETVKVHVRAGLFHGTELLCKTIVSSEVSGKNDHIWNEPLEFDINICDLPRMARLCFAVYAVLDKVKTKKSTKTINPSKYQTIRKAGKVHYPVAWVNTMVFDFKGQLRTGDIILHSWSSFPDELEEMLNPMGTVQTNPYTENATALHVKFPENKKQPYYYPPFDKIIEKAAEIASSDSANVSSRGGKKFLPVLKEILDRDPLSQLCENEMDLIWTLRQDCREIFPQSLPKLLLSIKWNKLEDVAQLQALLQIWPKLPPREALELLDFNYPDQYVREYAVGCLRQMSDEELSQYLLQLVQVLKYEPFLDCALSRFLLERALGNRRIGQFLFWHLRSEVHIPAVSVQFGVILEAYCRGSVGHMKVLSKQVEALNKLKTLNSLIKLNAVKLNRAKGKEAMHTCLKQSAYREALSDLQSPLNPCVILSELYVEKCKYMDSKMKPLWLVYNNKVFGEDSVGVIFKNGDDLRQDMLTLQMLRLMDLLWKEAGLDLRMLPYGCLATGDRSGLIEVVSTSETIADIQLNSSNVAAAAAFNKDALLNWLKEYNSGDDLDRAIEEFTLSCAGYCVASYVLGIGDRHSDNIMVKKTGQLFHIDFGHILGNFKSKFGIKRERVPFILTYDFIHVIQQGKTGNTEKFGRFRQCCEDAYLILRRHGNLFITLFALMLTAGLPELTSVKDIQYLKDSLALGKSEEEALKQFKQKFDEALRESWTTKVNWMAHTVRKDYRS
Chain of PIK3CA (human) (P42336 whole entry, looked up): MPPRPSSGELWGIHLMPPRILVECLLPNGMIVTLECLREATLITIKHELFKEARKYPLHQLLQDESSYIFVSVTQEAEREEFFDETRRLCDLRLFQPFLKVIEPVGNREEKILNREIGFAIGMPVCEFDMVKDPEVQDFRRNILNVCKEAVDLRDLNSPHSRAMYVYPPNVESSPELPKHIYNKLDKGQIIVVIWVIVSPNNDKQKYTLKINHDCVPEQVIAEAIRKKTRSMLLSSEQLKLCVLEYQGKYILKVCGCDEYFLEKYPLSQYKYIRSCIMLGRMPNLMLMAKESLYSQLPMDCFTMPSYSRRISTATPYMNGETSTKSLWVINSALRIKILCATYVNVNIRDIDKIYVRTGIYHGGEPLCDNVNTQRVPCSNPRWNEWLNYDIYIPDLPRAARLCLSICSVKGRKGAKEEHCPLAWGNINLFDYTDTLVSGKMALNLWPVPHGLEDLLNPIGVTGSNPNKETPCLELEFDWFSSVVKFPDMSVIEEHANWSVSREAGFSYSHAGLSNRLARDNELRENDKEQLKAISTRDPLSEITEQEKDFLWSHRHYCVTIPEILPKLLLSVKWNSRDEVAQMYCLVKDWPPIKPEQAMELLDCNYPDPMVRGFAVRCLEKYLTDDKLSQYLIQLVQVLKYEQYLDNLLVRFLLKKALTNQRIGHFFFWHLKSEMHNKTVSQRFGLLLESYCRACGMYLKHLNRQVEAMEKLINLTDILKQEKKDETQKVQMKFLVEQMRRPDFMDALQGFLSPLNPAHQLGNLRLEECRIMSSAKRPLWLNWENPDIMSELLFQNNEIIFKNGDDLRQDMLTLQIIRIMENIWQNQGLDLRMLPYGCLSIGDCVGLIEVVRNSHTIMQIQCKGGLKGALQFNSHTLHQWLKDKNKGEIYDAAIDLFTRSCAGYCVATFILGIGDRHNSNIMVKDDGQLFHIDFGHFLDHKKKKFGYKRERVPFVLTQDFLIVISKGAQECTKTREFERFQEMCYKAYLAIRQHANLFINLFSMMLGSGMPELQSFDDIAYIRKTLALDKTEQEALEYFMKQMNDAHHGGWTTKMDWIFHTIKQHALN

On to `C[C@H](Nc1nc(N)ncc1C#N)c1cc2cccc(-c3cnc4[nH]ccc4c3)c2c(=O)n1-c1ccccc1`, for which the IC50 at PIK3CA (human) is 0.1 to 1 µM; against PIK3CD (Human), < 100 nM; at PIK3CB (Human) it was 0.1 to 1 µM; against PIK3CG (human), < 100 nM.

For the compound `C[C@H](Nc1nc(N)ncc1C#N)c1cc2cccc(-c3cnc4ccccc4c3)c2c(=O)n1-c1ccccc1`, the IC50 at PIK3CA (human) was < 0.1 µM; against PIK3CD (Human), < 100 nM; against PIK3CB (Human), 0.1 to 1 µM; against PIK3CG (human), < 100 nM.

On to `C[C@H](Nc1nc(N)ncc1[N+](=O)[O-])c1cc2cccc(Cl)c2c(=O)n1-c1ccccc1`, for which the half-maximal inhibitory concentration (IC50) at PIK3CA (human) is > 10 µM; on PIK3CD (Human), < 100 nM; at PIK3CB (Human), 0.1 to 1 µM; at PIK3CG (human), < 100 nM.

In the case of `C[C@H](Nc1cc(Cl)ncn1)c1cc2cccc(Cl)c2c(=O)n1-c1ccccc1`, the IC50 against PIK3CA (human) and on PIK3CB (Human) was > 10 µM in each case.

As to `COc1cncc(-c2cccc3cc([C@H](C)Nc4nc(N)ncc4C#N)n(-c4ccccc4)c(=O)c23)n1`, the IC50 is > 10 µM against PIK3CA (human), < 100 nM on PIK3CD (Human), > 10 µM on PIK3CB (Human) and 100 to 1000 nM on PIK3CG (human).

Consider `COc1cc(-c2cccc3cc([C@H](C)Nc4nc(N)ncc4-c4cc(O)cc(F)c4)n(-c4ccccc4)c(=O)c23)ccn1`, for which the IC50 against PIK3CA (human) is > 10 µM; on PIK3CD (Human), < 100 nM; against PIK3CB (Human) it was > 10 µM; on PIK3CG (human) it was 100 to 1000 nM.

On to `COc1ncc(-c2cccc3nc([C@H](C)Nc4nc(N)ncc4C#N)n(-c4ccccc4)c(=O)c23)cn1`, for which the IC50 against PIK3CA (human) was > 10 µM; against PIK3CD (Human), < 100 nM; against PIK3CB (Human), > 10 µM; against PIK3CG (human), < 100 nM.

As for `COc1cnc(-c2cccc3cc([C@H](C)Nc4nc(N)ncc4C#N)n(-c4ccccc4)c(=O)c23)nc1`, the IC50 against PIK3CA (human) is > 10 µM; at PIK3CB (Human), > 10 µM; on PIK3CG (human), 100 to 1000 nM.

As to `COc1ncc(-c2cccc3cc([C@H](C)Nc4nc(N)ncc4C#N)n(-c4cccc(F)c4)c(=O)c23)cn1`, the half-inhibitory concentration (IC50) against PIK3CA (human) was > 10 µM; at PIK3CD (Human) it was < 100 nM; against PIK3CB (Human), > 10 µM; against PIK3CG (human), < 100 nM.

For the compound `COc1cc(-c2cccc3cc([C@H](C)Nc4nc(N)ncc4-c4ccccc4)n(-c4ccccc4)c(=O)c23)ccn1`, the 50% inhibitory concentration (IC50) is > 10 µM against PIK3CA (human), 100 to 1000 nM against PIK3CD (Human), > 10 µM against PIK3CB (Human) and < 100 nM against PIK3CG (human).

Regarding `C[C@H](Nc1nc(N)ncc1C#N)c1cc2cccc(-c3ccn(C)c(=O)c3)c2c(=O)n1-c1ccccc1`, the IC50 at PIK3CA (human) and on PIK3CB (Human) was > 10 µM throughout.

Consider `C[C@H](Nc1ncnc(Cl)c1[N+](=O)[O-])c1cc2cccc(Cl)c2c(=O)n1-c1ccccc1`, for which the IC50 against PIK3CA (human) is > 10 µM; against PIK3CD (Human), 100 to 1000 nM; against PIK3CB (Human), > 10 µM; against PIK3CG (human), > 10000 nM.

Regarding `C[C@H](Nc1nc(N)ncc1C#N)c1cc2cccc(Cl)c2c(=O)n1C1CCCC1`, the IC50 on PIK3CA (human) is > 10 µM; against PIK3CD (Human), < 100 nM; at PIK3CB (Human), 0.1 to 1 µM; at PIK3CG (human), < 100 nM.

As to `COc1cc(N[C@@H](C)c2cc3cccc(Cl)c3c(=O)n2-c2ccccc2)nc(N)n1`, the IC50 on PIK3CA (human) and at PIK3CB (Human) was > 10 µM each time.

With `CCN(C)C(=O)c1cnc(N)nc1N[C@@H](C)c1cc2cccc(-c3ccnc(OC)c3)c2c(=O)n1-c1ccccc1`, the figures for the IC50 against PIK3CA (human), against PIK3CB (Human) and against PIK3CG (human) were > 10 µM, > 10 µM and 100 to 1000 nM, respectively.

Take `C[C@H](Nc1nc(N)ncc1C#N)c1cc2cccc(C#CCCC(=O)N3CCOCC3)c2c(=O)n1-c1ccccc1`: the IC50 at PIK3CA (human) is 0.1 to 1 µM; against PIK3CD (Human) it was < 100 nM; against PIK3CB (Human), 0.1 to 1 µM; at PIK3CG (human), < 100 nM.

`C[C@H](Nc1cc(N)ncn1)c1cc2cccc(Cl)c2c(=O)n1-c1ccccc1`: the IC50 was > 10 µM against PIK3CA (human), 100 to 1000 nM against PIK3CD (Human) and > 10 µM against PIK3CB (Human).

In the case of `COc1cc(-c2cccc3cc([C@H](C)Nc4nc(N)ncc4C(=O)N4CCOCC4)n(-c4ccccc4)c(=O)c23)ccn1`, the half-inhibitory concentration (IC50) against PIK3CA (human) and at PIK3CB (Human) was > 10 µM each time.

For `COc1cc(-c2cccc3cc([C@H](C)Nc4nc(N)ncc4C(=O)N4CCC4)n(-c4ccccc4)c(=O)c23)ccn1`, the IC50 against PIK3CA (human) was > 10 µM; against PIK3CB (Human), > 10 µM; against PIK3CG (human), < 100 nM.

In the case of `C[C@H](Nc1nc(N)ncc1-c1ccccc1)c1cc2cccc(Cl)c2c(=O)n1-c1ccccc1`, the results for the IC50 against PIK3CA (human), on PIK3CB (Human) and on PIK3CG (human) were > 10 µM, > 10 µM and 100 to 1000 nM, respectively.

Regarding `C[C@H](Nc1nc(Cl)ncc1[N+](=O)[O-])c1cc2cccc(Cl)c2c(=O)n1-c1ccccc1`, the IC50 against PIK3CA (human) was > 10 µM; against PIK3CD (Human), 100 to 1000 nM; against PIK3CB (Human), > 10 µM.

Consider `CC(=O)Nc1cnc(N)nc1N[C@@H](C)c1cc2cccc(Cl)c2c(=O)n1-c1ccccc1`, for which the figures for the IC50 at PIK3CA (human), on PIK3CD (Human) and against PIK3CB (Human) were > 10 µM, > 10000 nM and > 10 µM, respectively.

(Values after the Kinase Knowledgebase extract (Sharma et al. 2016).)
